The conditions of data set [1]: 298.15 K; 101.33 kPa; Liquid.
The nature of data set [2]: refractive index (Na D-line) (dimensionless). Particulars: 298.15 K; 101.33 kPa; Liquid; Standard Abbe refractometry.

Numbers after ± are expanded uncertainties.

What is called mass density is the mass of a sample divided by its volume. For orientation: refractive index means a measure of how strongly the sample bends light.

With `CC(=O)OCC(C)C` [2-methylpropyl ethanoate], the mass density in data set [1] is recorded as 866.12 ± 1.4 kg/m3. For the same compound, the refractive index in data set [2] is reported as 1.3876 ± 0.0006.

In the case of `CC(=O)O` [acetic acid], the mass density in data set [1] is reported as 1043.9 ± 0.11 kg/m3. Moreover, the refractive index in data set [2] is on record as 1.3696 ± 0.0005. For `CC(C)CO` [2-methyl-1-propanol], in that order: 797.83 ± 0.48 kg/m3 and 1.3938 ± 0.0005. Consider `O` [water], for which the refractive index in data set [2] came to 1.3325 ± 0.0005.

Values taken from the NIST ThermoML archive (doi:10.1016/j.fluid.2008.07.001).
